The values that follow come from publication PMC13422867, “An orally available PfPKG inhibitor blocks Plasmodium’s infection of the liver” (PLOS Pathogens, 2026).

Structures are written as SMILES. pIC50, pKd: −log10 of the molar value.

The test system of one data set is P. falciparum TM90_C2B. Kind of data set: Asexual blood stage growth inhibition, SYBR Green I, 72 h. The data set is classed as cell-based. To be noted: Plasmodium falciparum, mean (standard error) of 3 biological replicates. The procedure: (§1) Asexual blood stage P. falciparum strains, including 3D7 and drug-resistant field isolates, were cultured using standard conditions in RPMI 1640 with 0.5% Albumax as described previously. EC₅₀ values were determined using a SYBR Green I fluorescence assay after 72 h of compound exposure. EC50 values were derived by nonlinear regression in GraphPad Prism version 10.

A further data set relates to P. falciparum 7G8. The data set is described as above. The data set is classed as cell-based. To be noted: Plasmodium falciparum, mean (standard error) of 3 biological replicates. The procedure: as §1
For another data set, the system named is P. falciparum 3D7. The data set is described as above. The data set is classed as cell-based. To be noted: Plasmodium falciparum, mean (standard error) of 3 biological replicates. The procedure: as §1
The test system of the next data set is P. falciparum K1. Described as above. The format is cell-based. To be noted: Plasmodium falciparum, mean (standard error) of 3 biological replicates. The protocol: as §1
For data set [1] the following is noted: in vitro; cited from earlier work.
In data set [2] the test system is mutant P. falciparum parasites carrying a Thr618Gln substitution. Particulars: cited from earlier work.
Data set [3] is described as follows: Cellular cytotoxicity, hepatocyte nuclear counts. The format is cell-based, simian. Particulars: simian, primary cryopreserved simian hepatocytes (lot OQB); cellular cytotoxicity. From the text: (§2) Primary cryopreserved hepatocytes were selected based on host-parasite compatibility: primary simian hepatocytes (lot OQB) for P. cynomolgi and human hepatocytes (lot BGW) for P. falciparum (BioIVT Inc., Baltimore, MD, USA). Cells were thawed according to the manufacturer’s protocol and seeded into 384-well collagen-coated assay plates (Greiner Bio-One, Monroe, NC, USA) using InVitroGro CP plating medium (BioIVT). Seeding densities were optimized for uniform monolayer formation, and hepatocytes were allowed to adhere for 24–48 hours before infection. Sporozoites were added at a 1:1.1 hepatocyte-to-sporozoite ratio within 48 hours post-seeding. Automated robotic systems were used for media changes and compound additions to ensure assay consistency and minimize variability associated with manual pipetting.
Test compounds (PfPKG inhibitors) and assay drug controls (KDU-691 and tafenoquine) were solubilized in DMSO or PBS and serially diluted into 8- or 12-point, 2- or 3-fold series, achieving final assay concentrations ranging from 20 µM to 0.019 µM. Compounds were introduced using a calibrated pin tool controlled by robotic arms (V&P Scientific), ensuring a 1:1000 dilution into assay wells. Media were replenished daily with fresh drug-containing HCM. Compounds were added 1-hour post-infection (p.i.) (day 0) and administered daily for 3 days. Cells were fixed on day 6 p.i. of P. falciparum culture and day 8 for P. cynomolgi infected culture, coinciding with liver stage schizont maturation.
(§3) High-content imaging was performed using the Operetta CLS system (Revvity) and image analysis was performed with Harmony software version 4.9 (Revvity, Waltham, MA, USA). Images were acquired at 10x or 20x magnification using DAPI and TRITC fluorescence channels. Following the established protocol, parasites were classified as hypnozoites or schizonts based on fluorescence intensity (mean and maximum), morphological features (cell roundness and size), and segmentation criteria. Hepatocyte nuclei were identified using Hoechst 33342 staining. Background signal was captured in uninfected, stained wells and subjected to the same parasite detection algorithm. Estimate erroneous parasite counts were then subtracted from infected well counts. Hepatocyte viability was determined by quantifying nuclear counts per well using Hoechst stain intensity thresholds. […] An in-house built Python-based image analysis script identified parasite objects using predefined fluorescence intensity thresholds. […] Parasite size was quantified by calculating the average object area (µm²) of validated parasite structures per well. […] Dose-response inhibition and IC50 were calculated relative to in-plate negative controls (DMSO-treated wells). […]

The subject of data set [4] is P. berghei sporozoites (PbLuc-GFP). Kind of data set: In vivo chemoprotective efficacy against sporozoite liver infection. More on the design: species or system Plasmodium berghei in mice.
The next data set relates to PfPKG. Particulars: cited from earlier work.
The subject of data set [5] is primary human hepatocytes. Nature of the data set: Cellular cytotoxicity, hepatocyte nuclear counts. To be noted: primary human hepatocytes. The format is cell-based.
Source text: as §2
(§4) Test compounds (PfPKG inhibitors) and assay drug controls (KDU-691 and tafenoquine) were solubilized in DMSO or PBS and serially diluted into 8- or 12-point, 2- or 3-fold series, achieving final assay concentrations ranging from 20 µM to 0.019 µM. […]
as §3, with “Hepatocyte nuclei were identified using Hoechst 33342 staining. Background signal was captured in uninfected, stained wells and subjected to the same parasite detection algorithm. Estimate erroneous parasite counts were then subtracted from infected well counts.” left out

The nature of data set [6]: Cellular cytotoxicity, hepatocyte nuclear counts. The data set is classed as cell-based, human. To be noted: human, primary cryopreserved human hepatocytes (lot BGW); cellular cytotoxicity.
Source text: as §2, §4
as §3, with “Hepatocyte nuclei were identified using Hoechst 33342 staining. Background signal was captured in uninfected, stained wells and subjected to the same parasite detection algorithm. Estimate erroneous parasite counts were then subtracted from infected well counts.” left out

Another data set concerns the target T1, ROCK2 (Homo sapiens, UniProt O75116).
T1 construct: purchased Eurofins (DiscoverX)
Nature of the data set: KdElect binding affinity assay. Particulars: read-out: ROCK2 Experimental Kd. The procedure:
(§5) Off-target kinase inhibition was assessed using the DiscoverX scanMAX (Eurofins) panel at 1 µM compound concentration. Binding affinities of CIT, ROCK1 and ROCK2 were evaluated using the KdElect assay (Eurofins).

The next data set has as its target T2, CIT (Homo sapiens, UniProt O14578).
T2 construct: purchased Eurofins (DiscoverX)
Nature of the data set: KdElect binding affinity assay. To be noted: read-out: CIT Experimental Kd. The procedure:
as §5

The subject of a further data set is hERG. Particulars: in vitro; cited from earlier work.
The mark [7] stands for this setting: Intravenous, 10 mg/kg x1 (-0.5 hpi).

T2 sequence (O14578 whole entry): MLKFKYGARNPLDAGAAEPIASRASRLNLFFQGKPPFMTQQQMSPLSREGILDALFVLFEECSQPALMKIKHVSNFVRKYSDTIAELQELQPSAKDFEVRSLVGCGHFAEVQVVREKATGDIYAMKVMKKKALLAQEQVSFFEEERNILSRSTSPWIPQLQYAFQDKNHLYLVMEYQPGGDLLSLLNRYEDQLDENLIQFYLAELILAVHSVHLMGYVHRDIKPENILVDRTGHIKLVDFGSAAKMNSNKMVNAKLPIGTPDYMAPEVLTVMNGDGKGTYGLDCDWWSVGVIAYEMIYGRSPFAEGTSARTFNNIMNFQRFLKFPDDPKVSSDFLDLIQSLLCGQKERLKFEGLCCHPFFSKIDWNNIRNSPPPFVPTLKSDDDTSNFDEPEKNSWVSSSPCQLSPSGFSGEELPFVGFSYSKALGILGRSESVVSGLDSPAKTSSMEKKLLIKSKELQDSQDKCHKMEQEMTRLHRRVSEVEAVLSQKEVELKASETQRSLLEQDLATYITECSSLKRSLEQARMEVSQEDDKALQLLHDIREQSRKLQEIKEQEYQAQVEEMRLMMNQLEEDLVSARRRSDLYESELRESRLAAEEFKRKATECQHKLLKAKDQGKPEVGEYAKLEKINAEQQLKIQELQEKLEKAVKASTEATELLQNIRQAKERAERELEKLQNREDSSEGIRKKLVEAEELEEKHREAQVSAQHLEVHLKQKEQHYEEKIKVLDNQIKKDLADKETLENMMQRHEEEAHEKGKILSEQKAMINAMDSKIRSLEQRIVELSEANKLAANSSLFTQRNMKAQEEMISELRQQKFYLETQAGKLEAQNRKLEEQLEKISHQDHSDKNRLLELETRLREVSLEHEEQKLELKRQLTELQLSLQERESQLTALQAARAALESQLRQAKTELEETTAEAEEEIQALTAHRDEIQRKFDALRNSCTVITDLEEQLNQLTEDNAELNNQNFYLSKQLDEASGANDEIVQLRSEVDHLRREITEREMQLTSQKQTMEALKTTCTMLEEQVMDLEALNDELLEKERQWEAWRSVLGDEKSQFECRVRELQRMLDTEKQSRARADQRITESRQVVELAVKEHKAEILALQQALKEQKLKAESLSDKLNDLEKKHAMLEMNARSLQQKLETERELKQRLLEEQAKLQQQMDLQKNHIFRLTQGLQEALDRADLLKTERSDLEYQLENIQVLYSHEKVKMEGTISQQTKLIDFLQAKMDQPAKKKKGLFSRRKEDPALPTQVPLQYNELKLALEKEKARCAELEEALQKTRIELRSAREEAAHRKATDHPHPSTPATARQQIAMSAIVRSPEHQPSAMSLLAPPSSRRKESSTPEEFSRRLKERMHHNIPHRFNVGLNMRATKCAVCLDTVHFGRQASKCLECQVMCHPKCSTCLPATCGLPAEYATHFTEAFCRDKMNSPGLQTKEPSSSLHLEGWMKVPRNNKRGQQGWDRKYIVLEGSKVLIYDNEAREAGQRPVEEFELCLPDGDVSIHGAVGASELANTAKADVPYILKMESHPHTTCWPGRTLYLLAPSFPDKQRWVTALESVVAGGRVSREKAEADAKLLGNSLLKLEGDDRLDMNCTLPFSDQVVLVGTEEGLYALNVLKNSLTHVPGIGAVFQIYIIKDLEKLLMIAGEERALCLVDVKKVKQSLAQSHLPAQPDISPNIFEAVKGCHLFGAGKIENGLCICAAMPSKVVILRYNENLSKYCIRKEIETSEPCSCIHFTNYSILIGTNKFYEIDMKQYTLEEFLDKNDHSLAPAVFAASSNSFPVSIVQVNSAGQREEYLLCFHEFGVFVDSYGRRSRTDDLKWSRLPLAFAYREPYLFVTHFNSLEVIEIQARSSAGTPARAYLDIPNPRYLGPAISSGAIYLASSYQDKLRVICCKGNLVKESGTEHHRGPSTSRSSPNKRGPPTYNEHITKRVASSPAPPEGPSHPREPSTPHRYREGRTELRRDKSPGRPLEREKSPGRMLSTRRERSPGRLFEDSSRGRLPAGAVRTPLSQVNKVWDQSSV
T1 sequence (O75116 whole entry): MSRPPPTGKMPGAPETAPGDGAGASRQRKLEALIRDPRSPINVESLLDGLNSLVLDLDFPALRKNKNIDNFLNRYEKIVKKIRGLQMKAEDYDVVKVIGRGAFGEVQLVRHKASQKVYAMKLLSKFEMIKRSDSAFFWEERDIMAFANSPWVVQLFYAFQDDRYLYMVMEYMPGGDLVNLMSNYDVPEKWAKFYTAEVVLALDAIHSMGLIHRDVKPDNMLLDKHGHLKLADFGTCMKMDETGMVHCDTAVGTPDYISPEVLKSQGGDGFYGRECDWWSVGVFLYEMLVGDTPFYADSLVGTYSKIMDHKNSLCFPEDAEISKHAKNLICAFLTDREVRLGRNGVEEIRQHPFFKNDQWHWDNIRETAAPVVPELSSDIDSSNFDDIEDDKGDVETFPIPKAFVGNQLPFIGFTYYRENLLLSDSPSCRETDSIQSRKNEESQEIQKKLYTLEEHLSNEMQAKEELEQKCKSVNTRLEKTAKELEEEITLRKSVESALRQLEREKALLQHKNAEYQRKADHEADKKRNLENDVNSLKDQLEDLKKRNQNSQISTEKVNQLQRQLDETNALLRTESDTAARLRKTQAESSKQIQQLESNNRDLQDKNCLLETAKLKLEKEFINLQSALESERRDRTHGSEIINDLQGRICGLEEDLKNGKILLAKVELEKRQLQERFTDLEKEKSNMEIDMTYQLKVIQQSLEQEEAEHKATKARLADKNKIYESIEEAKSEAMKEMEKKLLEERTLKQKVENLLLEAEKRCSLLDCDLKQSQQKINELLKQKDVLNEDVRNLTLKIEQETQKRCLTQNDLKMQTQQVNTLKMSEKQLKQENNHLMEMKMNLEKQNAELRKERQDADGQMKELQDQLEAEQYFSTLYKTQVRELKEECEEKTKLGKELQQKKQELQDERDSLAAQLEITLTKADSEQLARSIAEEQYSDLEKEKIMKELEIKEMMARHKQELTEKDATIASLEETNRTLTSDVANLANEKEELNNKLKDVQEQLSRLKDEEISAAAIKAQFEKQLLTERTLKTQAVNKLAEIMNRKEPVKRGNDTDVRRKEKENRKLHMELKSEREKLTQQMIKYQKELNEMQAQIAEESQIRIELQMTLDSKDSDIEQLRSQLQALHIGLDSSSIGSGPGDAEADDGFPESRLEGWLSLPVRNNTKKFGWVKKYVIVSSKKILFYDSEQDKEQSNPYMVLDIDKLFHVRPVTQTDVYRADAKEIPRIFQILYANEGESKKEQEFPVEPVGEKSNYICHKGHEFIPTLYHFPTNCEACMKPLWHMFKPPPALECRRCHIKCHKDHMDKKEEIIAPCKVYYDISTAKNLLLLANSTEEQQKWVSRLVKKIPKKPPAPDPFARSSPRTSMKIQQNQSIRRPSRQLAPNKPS

For `C[C@@H]1CN(C)CC[C@@H]1c1cc(-c2ccncc2)c(-c2ccc(F)cc2)[nH]1.Cl.Cl` [RUPB-61, 4-{5-[(3S,4S)-1,3-Dimethylpiperidin-4-yl]-2-(4-fluorophenyl)-1H-pyrrol-3-yl}pyridine Dihydrochloride], the pIC50 is 6.86 in the data set with P. falciparum TM90_C2B, 7.54 in the data set on P. falciparum 7G8, 7.30 in the data set on P. falciparum 3D7 and 7.38 with P. falciparum K1. Also, the first-pass metabolism result in data set [1] is on record as “minimal”. For the same molecule, the “increase in IC50 against Thr618Gln gatekeeper mutant parasites” value in data set [2] is on record as 15 fold. For the same molecule, the CC50 at 3 days in data set [3] and in data set [6] was over 20000 nM in each case. Moreover, the “No. of mice patent by D21/ No. of mice inoculated” value in data set [4] (setting [7]) is given as 0/5; in [4] (Oral, 10 mg/kg x1 (-3 hpi)), 0/5. Further, the “Prepatent period mean ± sd” value in data set [4] (setting [7]) is reported as “negative”; in [4] (Oral, 10 mg/kg x1 (-3 hpi)), “negative”. In data set [4] (single dose 10 mg/kg, PO (-3 hpi) and IV (-0.5 hpi), 10 mice), the “mice developing detectable blood stage infection in the 3-week monitoring period” value is given as “none”. In addition, the “IC50 against PfPKG variants, RUPB-60 compared with RUPB-61” value with PfPKG is listed as “similar”. Further, in data set [5], the “cytotoxicity against PHH” value was “no cytotoxicity”. For the same molecule, the negative-log Kd (pKd) was 7.89 on ROCK2 and 8.28 at CIT. The “cardiovascular risk as judged by hERG inhibition” value with hERG was “low preliminary cardiovascular risks”.

In general, pIC50 refers to the IC50 on a negative log10 scale, so that one unit is a factor of ten. Higher therefore signals a low IC50. What is called CC50 is the concentration at which the toxic effect on the cells reaches its halfway point. High values mean better tolerance by the cells, low ones harm at low concentration. As usually defined, the pKd is the Kd on a negative log10 scale, so that one unit is a factor of ten.
